Here are results for 17 compounds from ChEMBL document CHEMBL1151544, “Biarylcarboxamide inhibitors of phosphodiesterase IV and tumor necrosis factor-” (Bioorg Med Chem Lett, 1997).

The nature of assay [1]: Ability to block the release of TNF-alpha in human monocytes. Type of assay: functional, cell-based.
For assay [2], the target named is Phosphodiesterase 4 (Homo sapiens, UniProt P27815+Q08499+Q07343+Q08493). Kind of assay: Tested for its ability to inhibit the hydrolysis of cAMP by human monocyte cytosol phosphodiesterase. The class given is protein assay.
Assay [3] concerns U-937. Nature of the assay: Ability to elevate intracellular levels of cAMP in human U937 cells. The class given is functional, cell-based.
The subject of assay [4] is Mus musculus. Nature of the assay: Inhibition of LPS stimulated TNF-alpha release in mice at 1 mg/kg. Type of assay: functional.
For assay [5], the species on record is Homo sapiens. Kind of assay: Ability to block the release of TNF-alpha in human whole blood. Type of assay: functional.
Assay [6] relates to Mus musculus. Kind of assay: Inhibition of LPS stimulated TNF-alpha release in mice at 10 mg/kg. The class given is functional.

For orientation: IC50 means the midpoint of a concentration-inhibition curve. A word on the inhibition in vivo: it is the drop in the measured response relative to a control, in per cent. A higher inhibition in vivo goes with a strong effect.

Take `COc1ccc(-c2ccc(C(=O)O)cc2)cc1O[C@H]1CC2CCC1C2` (stereo not given in full): the IC50 in assay [1] was 0.14 µM.

In assay [1], `COc1ccc(-c2ccc(C(N)=O)nc2)cc1OCCCc1ccccc1` registered an IC50 of 2.31 µM.

With `COc1ccc(-c2ccc(C(N)=O)nc2)cc1OCCc1ccccc1`, it took 0.18 µM to reach half-maximal inhibition in assay [1] (IC50).

In the case of `COc1ccc(-c2ccc(C(N)=O)nc2)cc1OC1CCCC1`, the IC50 was found to be 0.037 µM in assay [1], 0.34 µM in assay [2], 0.046 µM in assay [3] and 0.18 µM in assay [5]. The same compound registered an inhibition in vivo at 1 mg/kg in assay [4] of 65.2%.

Regarding `COc1ccc(-c2ccc(C(N)=O)cn2)cc1OC1CCCC1`, in assay [1], the IC50 amounted to 0.08 µM.

As to `COc1ccc([C@]2(C#N)CC[C@@H](C(=O)O)CC2)cc1OC1CCCC1` [CILOMILAST], at 10 mg/kg the inhibition in vivo in assay [6] was 59.4%. Also, the 50% inhibitory concentration (IC50) in assay [1] was 0.29 µM; in assay [3], 3.63 µM; in assay [5], 6.12 µM.

`COc1ccc(-c2ccc(C(N)=O)c(Cl)c2)cc1OC1CCCC1` yielded an IC50 in assay [1] of 0.082 µM.

In turn, `COc1ccc(-c2ccc(C(N)=O)nc2)cc1OC1Cc2ccccc2C1` gave an IC50 in assay [1] of 0.12 µM.

Consider `COc1ccc(-c2ncc(C(N)=O)cc2Cl)cc1OC1CCCC1`, for which the IC50 in assay [1] came to 0.36 µM.

With `COc1ccc(-c2ccc(C(N)=O)c(C)c2)cc1OC1CCCC1`, in assay [1], it took 0.19 µM to reach half-maximal inhibition (IC50).

On to `COc1ccc(C2CNC(=O)C2)cc1OC1CCCC1` (stereo not given) [ROLIPRAM], for which the IC50 in assay [1] came out at 0.31 µM; in assay [3] it was 1.23 µM. In addition, 1 mg/kg produced 68% inhibition in vivo in assay [4].

As to `COc1ccc(-c2ccc(C(N)=O)nc2)cc1O[C@H]1CC2CCC1C2` (stereo not given in full), the IC50 in assay [1] turned out to be 0.009 µM; in assay [2], 1.07 µM; in assay [3], 0.049 µM; in assay [5], 0.14 µM.

Consider `COc1ccc(-c2ccc(C(N)=O)cc2Cl)cc1OC1CCCC1`, for which 0.26 µM corresponded to half-maximal inhibition in assay [1] (IC50).

As to `COc1ccc(-c2ccc(C(N)=O)cc2)cc1OC1CCCC1`, the IC50 in assay [1] was 0.026 µM; in assay [2], 5.91 µM; in assay [3], 0.081 µM; in assay [5], 0.45 µM.

Regarding `COc1ccc(-c2ccc(C(N)=O)cc2)cc1O[C@H]1CC2CCC1C2` (stereo not given in full), the IC50 stood at 0.024 µM in assay [1], 3.61 µM in assay [2], 0.022 µM in assay [3] and 0.18 µM in assay [5].

Compound `COc1ccc(-c2ccc(C(N)=O)cc2)cc1OC1Cc2ccccc2C1` registered an IC50 in assay [1] of 0.32 µM.

With `COc1ccc(-c2ccc(C(N)=O)c(C(F)(F)F)c2)cc1OC1CCCC1`, the IC50 in assay [1] is 1.17 µM.
